Measurements reported in publication PMC6458995, “MAP4K4 Inhibition Promotes Survival of Human Stem Cell-Derived Cardiomyocytes and Reduces Infarct Size In Vivo” (Cell Stem Cell, 2019).

Columns and labels:
141 human kinases = assay: Kinase selectivity profiling, Dundee Premier Screen, whole panel; format: biochemical; settings: number of kinases; compounds at 1 μM
Description: Kinase selectivity profiling was performed by the International Centre for Kinase Profiling, MRC Protein Phosphorylation and Ubiquitylation Unit (141 kinases; Premier Screen, http://www.kinase-screen.mrc.ac.uk), using a [γ-^33P]ATP filter binding assay ([Bain et al., 2007]). Compounds were screened at 1 μM. For key hits, pIC50 values were then determined by HTRF as above. More complete kinome profiling was performed by Reaction Biology (376 kinases). Stability in mouse and human liver microsomes was determined by Cyprotex.

vCor.4U cells [1] = assay: Mitochondrial function (Seahorse XFe24, OCR and ECAR); format: cell-based, human; settings: menadione 15 μM, 2 h
Description: Mitochondrial function in hiPSC-CMs was determined using a Seahorse XFe24 Analyzer. vCor.4U cells (60,000 well^-1) were transferred to 0.1% gelatin-coated XF24 plates and maintained for 5 d, as described above. On day 6, DMX-5804 was added 45 min prior to challenge with menadione for 2 h. The medium was replaced 1 hr before the assay, using bicarbonate-free Seahorse assay medium (8.3 g L^-1 DMEM Base (Sigma-Aldrich), 10 mM glucose, 2 mM L-alanyl-L-glutamine dipeptide (Glutamax-1, GIBCO), 1 mM sodium pyruvate (GIBCO), pH 7.4). Cells were maintained at 37°C without supplemental CO2 starting 1 hr before the assay (IL10 incubator, VWR). For each state measured, three assay cycles were performed (4 min mixing, 2 min wait, and 2 min measurement periods, with readings every 15 s). The basal oxygen consumption rate (OCR) and extracellular acidification rate (ECAR) were determined, followed by sequential injection of 1 μM oligomycin A (Abcam) to inhibit ATP synthase, 0.5 μM […] (FCCP; Abcam) to uncouple oxidative phosphorylation, and 1 μM antimycin A/rotenone (Sigma, Abcam) to inhibit mitochondrial complex III and I. For each condition, 12 wells were tested, comprising 4 independent experiments.

vCor.4U cells as hEHT = assay: 3D human engineered heart tissue (hEHT) challenged with menadione; format: cell-based
Description: Fibrin-based hEHTs were generated between flexible silicone posts as described ([Breckwoldt et al., 2017], [Hansen et al., 2010]), with minor modifications. 1.8 mL well^-1 of 2% agarose in PBS was pipetted into 24-well plates, Teflon spacers (EHT Technologies) were placed inside each well as a casting mold, and the agarose was left to set for 15 min. The spacers were removed from each well, and a pair of polydimethylsiloxane posts was inserted from above (EHT Technologies: Young’s modulus […], length 10 mm, radius, 0.5 mm). VCor.4U cells (4 × 10^6) were resuspended in 400 μL of master mix (340 μL DMEM (Biochrom), 10% heat-inactivated fetal calf serum (GIBCO), 2 mM glutamine (Life Technnologies), 1% penicillin/streptomycin (GIBCO); 60 μL 2x DMEM (GIBCO), 20% horse serum (GIBCO), 2% penicillin/streptomycin). Bovine fibrinogen (Sigma) was added (10 μL: 200 mg mL^-1, 95 μg mL^-1 aprotinin (Sigma), 0.9% NaCl), and 100 μL aliquots were transferred to PCR tubes containing 3 μL of 100 U ml^-1 thrombin (Biopur) in 60% PBS. Cell suspensions then were immediately transferred to the agarose casting molds. After 90 min to allow solidification, 300 μL well^-1 of EHT medium was added (DMEM, 10% horse serum, 0.1% human insulin (Sigma), 0.1% aprotinin), to hydrate the gels for a further 50 min. The hEHTs were then transferred to fresh 24-well plates with 1.5 mL well^-1 of EHT medium, which was replaced every Monday, Wednesday, and Friday for 12 d. Auxotonic force measurements were performed daily by optical tracking ([Hansen et al., 2010]) and calculated on the basis of post deflection distance (δ), post length (L), post radius (R), and the elastic modulus (E), using the formula F = 3πER^4δ4L^-3 ([Schaaf et al., 2011]) and the indicated post parameters. Beating rate and force generation increased between d 5 and 10 and were stable for at least 7 d thereafter. On day 12, the hEHTs were challenged for 24 hr with menadione, in the absence or presence of DMX-5804. Medium, including DMX-5804, was replenished daily. […]

infarct size = assay: Myocardial infarction (ischemia-reperfusion), infarct size by TTC/Evans blue; format: in vivo, CD-1 female mice; settings: 50 mg kg^−1 twice by gavage 10 h apart
vCor.4U cells [2] = assay: Hypoxia-reoxygenation assay (CellTox Green); format: cell-based, human; settings: 3 cycles of 0.1% O2 over 8 h
Description: vCor.4U cells were plated at 10,000 well^-1 in Cor.4U medium using black, clear-bottom 96-well plates pre-treated with Geltrex (GIBCO). After incubation overnight at 37°C, the media was replaced with phenol red-free DMEM (GIBCO) supplemented with 2% FCS, 2 mM […], 1 mM pyruvate and 10 mM D-galactose. DMX-5804 prepared in DMSO and CellTox Green (Promega) were added and incubated for 1 hr at 37°C. A breathable seal (AeraSeal) was added to the plate before transferring to a CLARIOstar plate reader (BMG Labtech) equipped with an atmospheric control unit. Oxygen concentration ramping was executed as follows (% O2, hr), at 37°C and 5% CO2. Fluorescence measurements (λex/em 483-14/530-30) were taken using the multiple scan and direct bottom features (5 positions read), and matrix averaging of each position every 20 min. Data were blank corrected, averaged (n = 2) and subjected to exponential smoothing with a damping factor of 0.3.

## Oc1ncnc2c1c(-c1ccccc1)cn2-c1ccccc1 [F1386-0303, 5,7-diphenyl-7H-pyrrolo[2,3-d]pyrimidin-4-ol]
141 human kinases
  off-target effects among 141 human kinases: 5

## COCCOc1ccc(-c2cn(-c3ccccc3)c3nc[nH]c(=O)c23)cc1 [DMX-5804, 5-[4-(2-methoxy-ethoxy)-phenyl]-7-phenyl-3,7-dihydro-pyrrolo[2,3-d]pyrimidin-4-one]
vCor.4U cells [1]; 10 μM
  extracellular acidification rate: partially rescued
  improvement of residual maximum oxidative capacity: 5 fold
vCor.4U cells [1]; below 10 μM
  maximum oxidative capacity at lesser concentrations: No significant benefits
vCor.4U cells as hEHT; 10 μM, first 24 h
  cell death from menadione in hEHT: suppressed
vCor.4U cells as hEHT; 2D culture or hEHT
  adverse effect on cardiomyocyte viability, rhythmicity, calcium handling, mitochondrial function, force generation: no adverse effect
vCor.4U cells as hEHT; 3 or 10 μM, 60 min and 24 h, not later
  rescue of contractile function in hEHT: virtually complete
Infarct size; post-injury treatment (1 h after reperfusion), vehicle 55.1%
  infarct size as a proportion of the area at ischemic risk: 25.6%
Infarct size; pre-injury treatment (20 min prior to ischemia), vehicle 48.5%
  infarct size as a proportion of the area at ischemic risk: 20.9%
vCor.4U cells [2]
  protection of human cardiomyocyte survival, hypoxia-reoxygenation: confirmed
